How the values were obtained:
[1] = biological target: Glycogen synthase kinase-3 beta (Homo sapiens, UniProt P49841)
Description: Inhibition of GSK3-beta assessed as NADH level after 10 mins by pyruvate kinase/lactate dehydrogenase coupled spectrophotometric assay

[2] = biological target: T1, Receptor-type tyrosine-protein kinase FLT3 (Homo sapiens, UniProt P36888); experiment: Inhibition of FLT3
T1 sequence (P36888 whole entry): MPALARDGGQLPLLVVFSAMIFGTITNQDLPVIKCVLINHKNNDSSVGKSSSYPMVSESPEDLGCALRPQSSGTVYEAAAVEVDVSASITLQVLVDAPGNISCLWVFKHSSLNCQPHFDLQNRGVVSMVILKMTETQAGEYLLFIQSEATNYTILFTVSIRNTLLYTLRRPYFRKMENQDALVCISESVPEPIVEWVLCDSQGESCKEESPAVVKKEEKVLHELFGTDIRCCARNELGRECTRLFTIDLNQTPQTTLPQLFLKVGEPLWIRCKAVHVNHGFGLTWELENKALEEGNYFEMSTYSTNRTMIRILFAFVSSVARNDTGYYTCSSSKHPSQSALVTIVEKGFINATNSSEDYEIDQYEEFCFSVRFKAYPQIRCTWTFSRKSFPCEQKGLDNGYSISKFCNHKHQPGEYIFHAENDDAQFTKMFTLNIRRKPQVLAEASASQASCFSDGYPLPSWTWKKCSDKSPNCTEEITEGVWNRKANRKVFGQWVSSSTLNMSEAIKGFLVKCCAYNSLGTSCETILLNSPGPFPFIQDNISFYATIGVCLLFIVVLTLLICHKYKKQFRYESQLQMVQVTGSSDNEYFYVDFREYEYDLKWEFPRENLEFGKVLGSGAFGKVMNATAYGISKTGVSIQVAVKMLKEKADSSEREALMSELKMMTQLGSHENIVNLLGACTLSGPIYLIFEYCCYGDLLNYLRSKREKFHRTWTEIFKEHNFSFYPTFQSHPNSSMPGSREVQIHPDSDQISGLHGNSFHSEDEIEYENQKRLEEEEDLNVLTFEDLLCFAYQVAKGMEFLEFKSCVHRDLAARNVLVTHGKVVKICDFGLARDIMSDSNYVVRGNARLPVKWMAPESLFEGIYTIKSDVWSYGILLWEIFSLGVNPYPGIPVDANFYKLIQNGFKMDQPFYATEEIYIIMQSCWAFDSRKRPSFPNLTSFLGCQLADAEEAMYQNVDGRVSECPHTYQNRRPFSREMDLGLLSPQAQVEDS

[3] = biological target: Tyrosine-protein kinase JAK2 (Homo sapiens, UniProt O60674); experiment: Inhibition of JAK2
Tyrosine-protein kinase JAK2, sequence (O60674 whole entry): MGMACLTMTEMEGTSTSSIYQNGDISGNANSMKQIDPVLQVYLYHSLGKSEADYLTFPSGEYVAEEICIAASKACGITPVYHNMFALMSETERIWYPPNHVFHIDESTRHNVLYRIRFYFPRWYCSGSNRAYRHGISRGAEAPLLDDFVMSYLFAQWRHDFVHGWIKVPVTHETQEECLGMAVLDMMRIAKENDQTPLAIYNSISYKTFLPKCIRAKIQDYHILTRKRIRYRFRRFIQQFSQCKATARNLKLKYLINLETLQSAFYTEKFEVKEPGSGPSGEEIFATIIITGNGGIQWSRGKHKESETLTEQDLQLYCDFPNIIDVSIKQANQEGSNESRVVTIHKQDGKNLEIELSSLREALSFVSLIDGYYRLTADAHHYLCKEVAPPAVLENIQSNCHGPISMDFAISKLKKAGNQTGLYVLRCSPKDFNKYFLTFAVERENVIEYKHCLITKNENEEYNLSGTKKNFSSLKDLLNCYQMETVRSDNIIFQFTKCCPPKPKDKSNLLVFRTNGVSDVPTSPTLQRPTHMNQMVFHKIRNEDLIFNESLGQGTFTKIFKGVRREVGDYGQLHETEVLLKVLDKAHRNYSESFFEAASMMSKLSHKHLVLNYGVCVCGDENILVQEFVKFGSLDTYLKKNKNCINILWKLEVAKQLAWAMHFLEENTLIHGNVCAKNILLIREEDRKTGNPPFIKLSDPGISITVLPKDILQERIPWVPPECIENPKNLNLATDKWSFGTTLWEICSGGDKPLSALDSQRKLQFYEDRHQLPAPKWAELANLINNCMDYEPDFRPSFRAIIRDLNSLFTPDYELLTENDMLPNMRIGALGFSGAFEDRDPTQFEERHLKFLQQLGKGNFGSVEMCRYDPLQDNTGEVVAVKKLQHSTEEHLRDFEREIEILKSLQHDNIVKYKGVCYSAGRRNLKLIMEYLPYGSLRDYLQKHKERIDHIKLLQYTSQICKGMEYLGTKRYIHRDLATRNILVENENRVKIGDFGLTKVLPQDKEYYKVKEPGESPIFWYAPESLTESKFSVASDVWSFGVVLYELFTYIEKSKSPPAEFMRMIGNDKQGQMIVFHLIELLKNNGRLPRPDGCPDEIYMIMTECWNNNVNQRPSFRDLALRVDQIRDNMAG

[4] = biological target: Mitogen-activated protein kinase 10 (Homo sapiens, UniProt P53779); experiment: Inhibition of JNK3
Mitogen-activated protein kinase 10, sequence (P53779 whole entry): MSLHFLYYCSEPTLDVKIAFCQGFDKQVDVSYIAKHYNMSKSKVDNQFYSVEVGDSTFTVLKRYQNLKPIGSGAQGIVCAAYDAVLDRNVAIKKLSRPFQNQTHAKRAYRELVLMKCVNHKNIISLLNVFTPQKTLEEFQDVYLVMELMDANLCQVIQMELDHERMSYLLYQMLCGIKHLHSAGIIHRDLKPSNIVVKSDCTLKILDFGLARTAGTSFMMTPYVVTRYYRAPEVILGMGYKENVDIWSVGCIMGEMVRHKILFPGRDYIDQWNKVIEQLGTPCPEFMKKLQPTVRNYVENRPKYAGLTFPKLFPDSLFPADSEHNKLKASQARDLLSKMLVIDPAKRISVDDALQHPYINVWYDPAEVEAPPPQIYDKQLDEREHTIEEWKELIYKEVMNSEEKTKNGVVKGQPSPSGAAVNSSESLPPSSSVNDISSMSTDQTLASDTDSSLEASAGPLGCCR

[5] = biological target: Vascular endothelial growth factor receptor 2 (Homo sapiens, UniProt P35968); experiment: Inhibition of KDR
[6] = Inhibition of PKA
[7] = biological target: Serine/threonine-protein kinase PLK1 (Homo sapiens, UniProt P53350); experiment: Inhibition of PLK1
Serine/threonine-protein kinase PLK1, sequence (P53350 whole entry): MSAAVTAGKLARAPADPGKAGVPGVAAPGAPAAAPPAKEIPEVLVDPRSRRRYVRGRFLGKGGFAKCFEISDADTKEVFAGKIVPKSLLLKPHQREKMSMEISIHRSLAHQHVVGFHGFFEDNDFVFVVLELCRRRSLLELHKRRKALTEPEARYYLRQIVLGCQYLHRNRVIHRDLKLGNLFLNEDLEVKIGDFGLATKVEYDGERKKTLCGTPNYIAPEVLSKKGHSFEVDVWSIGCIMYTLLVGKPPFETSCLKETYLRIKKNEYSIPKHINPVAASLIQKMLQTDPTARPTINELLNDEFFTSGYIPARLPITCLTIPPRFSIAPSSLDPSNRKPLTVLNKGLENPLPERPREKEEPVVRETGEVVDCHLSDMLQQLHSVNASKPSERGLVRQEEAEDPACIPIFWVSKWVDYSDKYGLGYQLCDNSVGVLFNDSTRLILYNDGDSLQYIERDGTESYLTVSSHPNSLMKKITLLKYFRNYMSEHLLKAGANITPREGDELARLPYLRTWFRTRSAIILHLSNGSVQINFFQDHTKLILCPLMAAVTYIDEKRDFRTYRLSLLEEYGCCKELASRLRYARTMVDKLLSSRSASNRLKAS

[8] = biological target: Rho-associated protein kinase 1 (Homo sapiens, UniProt Q13464); experiment: Inhibition of ROCK1
Rho-associated protein kinase 1, sequence (Q13464 whole entry): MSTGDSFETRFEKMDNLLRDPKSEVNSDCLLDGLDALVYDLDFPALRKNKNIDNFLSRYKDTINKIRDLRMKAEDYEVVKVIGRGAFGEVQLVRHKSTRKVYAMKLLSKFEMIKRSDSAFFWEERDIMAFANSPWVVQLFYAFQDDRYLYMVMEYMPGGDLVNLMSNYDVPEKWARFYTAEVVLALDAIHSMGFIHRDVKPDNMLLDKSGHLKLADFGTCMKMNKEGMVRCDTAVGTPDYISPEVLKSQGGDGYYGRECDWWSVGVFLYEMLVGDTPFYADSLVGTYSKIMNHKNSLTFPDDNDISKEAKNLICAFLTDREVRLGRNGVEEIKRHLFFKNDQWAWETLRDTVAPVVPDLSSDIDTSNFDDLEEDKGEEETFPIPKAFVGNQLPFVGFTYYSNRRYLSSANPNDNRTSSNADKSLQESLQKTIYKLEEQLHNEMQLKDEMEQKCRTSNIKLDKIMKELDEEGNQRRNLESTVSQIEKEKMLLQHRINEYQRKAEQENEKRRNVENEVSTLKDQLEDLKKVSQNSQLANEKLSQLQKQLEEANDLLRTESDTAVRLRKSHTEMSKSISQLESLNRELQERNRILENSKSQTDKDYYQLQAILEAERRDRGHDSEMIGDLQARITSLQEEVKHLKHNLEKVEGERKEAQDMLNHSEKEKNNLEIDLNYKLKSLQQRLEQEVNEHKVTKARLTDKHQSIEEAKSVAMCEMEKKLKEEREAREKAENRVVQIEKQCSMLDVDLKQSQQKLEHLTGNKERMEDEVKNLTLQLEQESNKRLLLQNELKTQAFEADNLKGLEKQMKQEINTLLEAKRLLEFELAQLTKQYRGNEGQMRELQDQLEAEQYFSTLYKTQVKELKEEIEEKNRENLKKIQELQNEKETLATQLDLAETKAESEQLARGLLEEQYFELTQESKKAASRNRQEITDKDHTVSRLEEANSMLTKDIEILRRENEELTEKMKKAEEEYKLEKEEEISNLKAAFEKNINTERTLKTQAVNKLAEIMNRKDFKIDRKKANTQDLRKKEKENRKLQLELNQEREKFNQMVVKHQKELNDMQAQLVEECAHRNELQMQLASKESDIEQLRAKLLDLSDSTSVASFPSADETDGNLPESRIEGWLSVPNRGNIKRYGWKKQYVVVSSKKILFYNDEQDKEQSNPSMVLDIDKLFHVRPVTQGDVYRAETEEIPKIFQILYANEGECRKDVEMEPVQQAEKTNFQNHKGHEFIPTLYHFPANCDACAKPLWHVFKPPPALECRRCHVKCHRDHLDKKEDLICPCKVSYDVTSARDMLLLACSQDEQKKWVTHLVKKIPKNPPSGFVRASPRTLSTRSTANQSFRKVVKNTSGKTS

[9] = biological target: Proto-oncogene tyrosine-protein kinase Src (Homo sapiens, UniProt P12931); experiment: Inhibition of SRC
Proto-oncogene tyrosine-protein kinase Src, sequence (P12931 2-536 limits assumed): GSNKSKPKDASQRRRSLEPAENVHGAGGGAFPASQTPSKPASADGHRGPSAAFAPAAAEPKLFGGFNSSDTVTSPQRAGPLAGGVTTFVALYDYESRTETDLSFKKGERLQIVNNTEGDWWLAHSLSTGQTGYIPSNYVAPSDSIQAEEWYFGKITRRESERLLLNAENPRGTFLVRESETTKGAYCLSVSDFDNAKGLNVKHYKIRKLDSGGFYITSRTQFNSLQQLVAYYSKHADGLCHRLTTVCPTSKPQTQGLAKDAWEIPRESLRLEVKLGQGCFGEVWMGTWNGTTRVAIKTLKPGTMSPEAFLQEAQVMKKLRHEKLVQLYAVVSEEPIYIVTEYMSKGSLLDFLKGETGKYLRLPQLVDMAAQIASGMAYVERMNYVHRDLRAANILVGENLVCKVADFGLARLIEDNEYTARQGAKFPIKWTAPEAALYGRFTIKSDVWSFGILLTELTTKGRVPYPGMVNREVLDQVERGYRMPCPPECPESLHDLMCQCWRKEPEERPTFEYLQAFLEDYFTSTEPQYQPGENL

[10] = biological target: Cyclin-dependent kinase 2 (Homo sapiens, UniProt P24941)
[11] = biological target: Hepatocyte growth factor receptor (Homo sapiens, UniProt P08581)
[12] = biological target: T2, Interleukin-1 receptor-associated kinase 4 (Homo sapiens, UniProt Q9NWZ3); experiment: Inhibition of IRAK4
T2 sequence (Q9NWZ3 whole entry): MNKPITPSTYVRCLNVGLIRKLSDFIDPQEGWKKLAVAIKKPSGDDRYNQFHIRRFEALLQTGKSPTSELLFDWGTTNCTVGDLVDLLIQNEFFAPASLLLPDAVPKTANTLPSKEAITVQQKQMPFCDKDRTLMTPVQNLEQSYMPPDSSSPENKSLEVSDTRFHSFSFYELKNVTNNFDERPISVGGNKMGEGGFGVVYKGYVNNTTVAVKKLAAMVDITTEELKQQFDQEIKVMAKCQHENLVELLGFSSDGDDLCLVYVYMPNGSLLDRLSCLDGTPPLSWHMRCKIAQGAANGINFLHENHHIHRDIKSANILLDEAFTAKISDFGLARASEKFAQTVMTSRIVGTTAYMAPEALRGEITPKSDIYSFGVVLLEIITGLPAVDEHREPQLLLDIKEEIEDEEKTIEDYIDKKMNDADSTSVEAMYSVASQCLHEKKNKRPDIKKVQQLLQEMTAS

[13] = biological target: Phosphatidylinositol 4,5-bisphosphate 3-kinase catalytic subunit gamma isoform (Homo sapiens, UniProt P48736); experiment: Inhibition of PI3Kgamma
[14] = biological target: Tyrosine-protein kinase SYK (Homo sapiens, UniProt P43405)

Glycogen synthase kinase-3 beta, sequence (P49841 whole entry): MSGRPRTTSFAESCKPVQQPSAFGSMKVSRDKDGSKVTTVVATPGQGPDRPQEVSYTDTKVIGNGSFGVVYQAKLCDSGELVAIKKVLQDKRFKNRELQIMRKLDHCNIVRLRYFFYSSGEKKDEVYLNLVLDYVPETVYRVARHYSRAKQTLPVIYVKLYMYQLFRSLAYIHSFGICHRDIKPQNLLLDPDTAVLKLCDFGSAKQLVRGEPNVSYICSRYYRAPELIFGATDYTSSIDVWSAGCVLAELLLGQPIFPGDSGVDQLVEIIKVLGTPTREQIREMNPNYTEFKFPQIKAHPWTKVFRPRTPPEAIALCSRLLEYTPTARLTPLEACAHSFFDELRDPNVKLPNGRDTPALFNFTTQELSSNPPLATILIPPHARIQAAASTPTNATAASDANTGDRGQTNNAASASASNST

| SMILES | Ki [1] [nM] | further results |
| --- | --- | --- |
| CC1=NNC(=O)/C1=N\Nc1ccccc1Cl | 460 | – |
| COc1ccncc1C1=NNC(=O)/C1=N\Nc1ccc(N2CCOCC2)cc1 | 50 | – |
| CC(C)C1=NNC(=O)/C1=N\Nc1ccccc1Cl | > 3700 | – |
| COc1ccc(N/N=C2\C(=O)NN=C2c2ccccn2)cc1 | 640 | – |
| COc1cccc(C2=NNC(=O)/C2=N\Nc2ccccc2)c1 | 39 | – |
| COc1ccccc1N/N=C1\C(=O)NN=C1c1ccccc1 | > 4000 | – |
| O=C1NN=C(c2ccncc2)/C1=N/Nc1ccccc1Cl | 250 | – |
| O=C1NN=C/C1=N/Nc1ccccc1Cl | 1490 | – |
| COc1cccc(C2=NNC(=O)/C2=N\Nc2cccnc2)c1 | 30 | – |
| COc1ccncc1C1=NNC(=O)/C1=N\Nc1ccncc1 | 16 | – |
| COc1cccc(C2=NNC(=O)/C2=N\Nc2ccc(N3CCOCC3)cc2)c1 | 59 | – |
| COc1ccc(C2=NNC(=O)/C2=N\Nc2cccnc2)cc1 | 2 | Ki [2]: 130 nM; Ki [12]: 1500 nM; Ki [3]: > 4 µM; Ki [4]: > 4 µM; Ki [5]: 3400 nM; Ki [6]: > 4 µM; Ki [7]: > 4 µM; Ki [8]: > 4 µM; Ki [9]: > 4 µM; Ki [10]: 62 nM; Ki [11]: > 4 µM |
| O=C1NN=C(c2ccccn2)/C1=N/Nc1ccccc1Cl | 650 | – |
| COc1ccc(N/N=C2\C(=O)NN=C2c2cccnc2)cc1 | 20 | – |
| COc1cccc(C2=NNC(=O)/C2=N\Nc2ccccn2)c1 | 8 | – |
| COc1cccc(C2=NNC(=O)/C2=N\Nc2ccncc2)c1 | 23 | – |
| COc1ccc(C2=NNC(=O)/C2=N\Nc2ccc(N3CCOCC3)cc2)cc1 | 8 | – |
| O=C1NN=C(c2ccccc2)/C1=N/Nc1cccc(Cl)c1 | 120 | – |
| COc1cccc(N/N=C2\C(=O)NN=C2c2ccccc2)c1 | 35 | – |
| O=C1NN=C(c2ccccc2)/C1=N/Nc1ccccc1Cl | 720 | – |
| COc1ccncc1C1=NNC(=O)/C1=N\Nc1ccccc1 | 4.5 | Ki [2]: 290 nM; Ki [12]: 1100 nM; Ki [3]: 3.5 µM; Ki [4]: 2.5 µM; Ki [13]: 540 nM; Ki [5]: 1000 nM; Ki [6]: > 4 µM; Ki [7]: > 4 µM; Ki [8]: > 4 µM; Ki [9]: > 4 µM; Ki [14]: 1800 nM |
| COc1ccccc1N/N=C1\C(=O)NN=C1c1cnccc1OC | 270 | – |
| COc1ccncc1C1=NNC(=O)/C1=N\Nc1cccnc1 | 23 | – |
| O=C1NN=C(c2ccccc2)/C1=N/Nc1ccccc1 | 99 | – |
| O=C1NN=C(c2cccnc2)/C1=N/Nc1ccccc1Cl | 200 | – |

More lines, main results first:

| Ki [1] [nM] | SMILES | further results |
| --- | --- | --- |
| < 2 | COc1ccc(C2=NNC(=O)/C2=N\Nc2ccc(C#N)cc2)cc1OC | – |
| 0.4 | COc1ccc(C2=NNC(=O)/C2=N\Nc2cccc(Cl)c2)cc1OC | – |
| 3 | COc1ccncc1C1=NNC(=O)/C1=N\Nc1ccc(Cl)cc1 | – |
| 0.8 | COc1ccc(C2=NNC(=O)/C2=N\Nc2cccc(OC)c2)cc1 | Ki [2]: 66 nM; Ki [3]: > 1.6 µM; Ki [4]: > 4 µM; Ki [5]: 1800 nM; Ki [6]: > 4 µM; Ki [7]: > 4 µM; Ki [8]: > 4 µM; Ki [9]: > 4 µM; Ki [10]: 95 nM; Ki [11]: > 4 µM |
| 0.4 | COc1cccc(N/N=C2\C(=O)NN=C2c2ccc(OC)c(OC)c2)c1 | – |
| 3.7 | COc1cccc(N/N=C2\C(=O)NN=C2c2cnccc2OC)c1 | – |
| 2 | COc1ccc(C2=NNC(=O)/C2=N\Nc2ccc(Cl)cc2)cc1 | – |
| 1.9 | COc1ccc(C2=NNC(=O)/C2=N\Nc2cccc(Cl)c2)cc1 | – |
| 44 | COc1ccc(C2=NNC(=O)/C2=N\Nc2ccccc2Cl)cc1OC | – |
| 5 | COc1cccc(N/N=C2\C(=O)NN=C2c2cccc(OC)c2)c1 | – |
| < 2 | COc1ccc(N/N=C2\C(=O)NN=C2c2ccc(OC)c(OC)c2)cc1 | – |
| 23 | O=C1NN=C(c2ccccc2)/C1=N/Nc1ccc(Cl)cc1 | – |
| 4 | COc1cccc(C2=NNC(=O)/C2=N\Nc2ccc(C#N)cc2)c1 | – |
| 850 | COc1cccc(C2=NNC(=O)/C2=N\Nc2ccccc2Cl)c1 | – |
| 2 | COc1ccc(N/N=C2\C(=O)NN=C2c2ccc(OC)cc2)cc1 | – |
| < 3.5 | COc1ccc(C2=NNC(=O)/C2=N\Nc2cccnc2)cc1OC | – |
| 18 | COc1ccc(N/N=C2\C(=O)NN=C2c2cccc(OC)c2)cc1 | – |
| 8 | COc1cccc(C2=NNC(=O)/C2=N\Nc2cccc(Cl)c2)c1 | – |

| Ki [1] [nM] | SMILES | further results |
| --- | --- | --- |
| 9 | COc1cccc(C2=NNC(=O)/C2=N\Nc2ccc(Cl)cc2)c1 | – |
| 9 | COc1ccc(N/N=C2\C(=O)NN=C2c2cc(OC)c(OC)c(OC)c2)cc1 | – |
| 87 | COc1ccc(C2=NNC(=O)/C2=N\Nc2ccc(N(C)C)cc2)cc1OC | – |
| 2 | CCN(CC)c1ccc(N/N=C2\C(=O)NN=C2c2ccc(OC)c(OC)c2)cc1 | – |
| < 2 | COc1ccc(C2=NNC(=O)/C2=N/Nc2ccc(Cl)cc2)cc1OC | – |
| 8.3 | COc1ccncc1C1=NNC(=O)/C1=N\Nc1ccc(C#N)cc1 | – |
| < 3.5 | COc1ccc(C2=NNC(=O)/C2=N\Nc2ccncc2)cc1OC | – |
| 2 | COc1ccc(N/N=C2\C(=O)NN=C2c2cnccc2OC)cc1 | – |
| 3 | COc1ccc(C2=NNC(=O)/C2=N\Nc2ccc(N3CCOCC3)cc2)cc1OC | – |
| 9 | COc1cccc(C2=NNC(=O)/C2=N\Nc2ccc(N(C)C)cc2)c1 | – |
| 7.7 | COc1ccncc1C1=NNC(=O)/C1=N\Nc1ccc(C(=O)O)cc1 | – |
| 16 | CCN(CC)c1ccc(N/N=C2\C(=O)NN=C2c2ccc(OC)cc2)cc1 | – |
| 6.5 | COc1cccc(C2=NNC(=O)/C2=N\Nc2ccc(C(=O)O)cc2)c1 | – |
| 14 | COc1ccc(C2=NNC(=O)/C2=N\Nc2ccncc2)cc1 | – |
| 110 | COc1ccc(C2=NNC(=O)/C2=N\Nc2ccc(N(C)C)cc2)cc1 | – |
| 30 | COc1ccc(N/N=C2\C(=O)NN=C2c2ccncc2)cc1 | – |
| < 2 | COc1ccc(C2=NNC(=O)/C2=N\Nc2ccc(C#N)cc2)cc1 | – |
| < 3.5 | COc1ccc(C2=NNC(=O)/C2=N\Nc2ccccc2)cc1OC | – |

From ChEMBL document CHEMBL1154953, “3-Aryl-4-(arylhydrazono)-1H-pyrazol-5-ones: Highly ligand efficient and potent inhibitors of GSK3beta” (Bioorg Med Chem Lett, 2010)
